Experiment: Transmembrane screen (TS) for membrane affinity: drug solution added to membrane lipid Test system in 96 well plate, turbidity assessed visually or at 690 nm
Type: physicochemical
Conditions: higher turbidity with VP 805 than VP200 at 10:1 or lower lipid to drug ratios

With `Clc1ccccc1C(c1ccccc1)(c1ccccc1)n1ccnc1` [Clotrimazole] the “relative affinity for VP 200 versus VP 805 (turbidity)” value was “higher affinity for VP 200 than VP 805”.
